The supplement of paper PMC10307832

Columns and labels:
Assay in all cases: relative viability (nuclei count vs DMSO), 5 days (fraction); higher = more cells survive
[1] = compound: CCC1=CN=CN=C1N2CCN(CC2)CC3=NC4=C(N3)C=C(C=C4)C(F)(F)F + NC(=O)Nc1cc(-c2cccc(F)c2)sc1C(=O)N[C@H]1CCCNC1 [AZD7762] (partner 0.2 µM)
In short: (§1)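 After 5 days of treatment, lung cancer cells in 1536-well plates were fixed and stained in a single step (final 0.05% Triton X-100, 1% formaldehyde, 1 ug/ml Hoechst) and their nuclei counted on 4× images. Treatment had been applied by pin tool the day after seeding as one drug alone or as a fixed anchor-drug dose with five library-drug doses (not always all listed) in √10 steps. Relative viability is the nuclei count of treated wells divided by that of vehicle wells, and values are medians of duplicate plates.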

[2] = compound: CCC1=CN=CN=C1N2CCN(CC2)CC3=NC4=C(N3)C=C(C=C4)C(F)(F)F + O=C(CCCCCCC(=O)Nc1ccccc1)NO [Vorinostat] (partner 1 µM)
In short: as §1

[3] = compound: CCC1=CN=CN=C1N2CCN(CC2)CC3=NC4=C(N3)C=C(C=C4)C(F)(F)F + O=C(c1cc(Cc2n[nH]c(=O)c3ccccc23)ccc1F)N1CCN(C(=O)C2CC2)CC1 [Olaparib] (partner 8 µM)
In short: as §1

[4] = compound: CCn1c(-c2nonc2N)nc2cnc(Oc3cccc(NC(=O)c4ccc(OCCN5CCOCC5)cc4)c3)cc21 + O=C(CCCCCCC(=O)Nc1ccccc1)NO [Vorinostat] (partner 1 µM)
In short: as §1

Row | Cell Line | relative viability ([1]; first compound 0.04 µM) | relative viability ([1]; first compound 0.1265 µM) | relative viability ([1]; first compound 0.4 µM) | relative viability ([1]; first compound 1.265 µM) | relative viability ([1]; first compound 4 µM) | relative viability ([2]; first compound 0.04 µM) | relative viability ([2]; first compound 0.1265 µM) | relative viability ([2]; first compound 0.4 µM) | relative viability ([2]; first compound 1.265 µM) | relative viability ([2]; first compound 4 µM) | relative viability ([3]; first compound 0.04 µM) | relative viability ([3]; first compound 0.1265 µM) | relative viability ([3]; first compound 0.4 µM) | relative viability ([3]; first compound 1.265 µM) | relative viability ([3]; first compound 4 µM) | relative viability ([4]; first compound 0.1265 µM) | relative viability ([4]; first compound 0.4 µM) | relative viability ([4]; first compound 1.265 µM) | relative viability ([4]; first compound 4 µM) | relative viability ([4]; first compound 0.04 µM)
1 | NCI-H727 | 0.641 | 0.593 | 0.522 | 0.566 | 0.541 | 1.22 | 1.08 | 1.09 | 1.03 | 1.35 | 0.73 | 0.593 | 0.719 | 0.61 | 0.641 | 1.23 | 1.05 | 0.961 | 1.36 | –
2 | HCC-44 | 1.04 | 0.946 | 0.977 | 1.13 | 0.986 | 1.01 | 1.06 | 1.09 | 1.17 | 1.02 | 1.02 | 0.963 | 0.978 | 0.99 | 0.966 | 1.18 | 1.14 | 1.07 | 1.09 | 1.13
3 | NCI-H522 | 0.87 | 0.869 | 0.707 | 0.748 | 0.901 | 0.951 | 1.02 | 0.75 | 0.771 | 0.973 | 0.601 | 0.613 | 0.573 | 0.526 | 0.558 | 0.697 | 0.783 | 0.742 | 0.539 | 1.19
4 | ChaGo-K-1 | 0.835 | 0.836 | 0.881 | 0.816 | 0.961 | 0.792 | 0.75 | 0.712 | 0.648 | 0.824 | 0.392 | 0.39 | 0.457 | 0.431 | 0.381 | 0.684 | 0.514 | 0.536 | 0.55 | 1
5 | EMC-BAC-2 | 1.1 | 1.05 | 1.12 | 1.05 | 1.21 | – | 0.415 | 0.422 | 0.386 | 0.484 | 0.505 | 0.503 | 0.47 | 0.447 | 0.479 | 0.297 | 0.159 | 0.147 | 0.167 | 0.438
6 | LCLC-103H | 0.776 | 0.774 | 0.794 | 0.684 | 0.865 | 0.797 | 0.685 | 0.746 | 0.668 | 0.717 | 0.798 | 0.733 | 0.743 | 0.718 | 0.707 | 0.8 | 0.55 | 0.537 | 0.512 | 0.921
7 | LK-2 | 0.414 | 0.476 | 0.353 | 0.209 | 0.466 | 0.245 | 0.235 | 0.356 | 0.223 | 0.244 | 0.817 | 0.675 | 0.603 | 0.517 | 0.712 | 0.37 | 0.168 | 0.178 | 0.156 | 0.522
8 | NCI-H3122 | 0.971 | 0.947 | 0.957 | 1.04 | 0.977 | 1.04 | 0.863 | 1.01 | 1.03 | 0.875 | 0.663 | 0.55 | 0.551 | 0.54 | 0.56 | 0.971 | 0.671 | 0.781 | 0.61 | 1.1
